{"source": "patent US9408871B2", "about": "“Methods for inhibiting complement activation and uses thereof” (THE UNIVERSITY OF BRITISH COLUMBIA, priority 2013, dated 2016)", "key": {"[1]": {"system": "TP complement components (C5b,6, C7, C8, C9)", "experiment": "terminal pathway hemolytic assay using purified complement components", "assay_type": "cell-based, human", "settings": "cRBC, purified C5b,6, C7, C8, C9", "method": "For serum-based terminal pathway (TP) hemolytic assays, components were diluted in GVB containing 10 mM EDTA (GVB-E), the latter added to prevent upstream complement activation and generation of endogenous C5b,6. 2% NHS was used as the source of C7, C8, and C9, and hemolysis of chicken erythrocytes (cRBC) (3.3×10^8 cells/mL) was initiated by addition of exogenous purified C5b,6, the concentration of which was determined from pilot studies to yield ˜70-80% lysis at 30 min. No C5b,6 activity was detected in the NHS prior to initiating the reaction. For some experiments, instead of NHS, purified terminal pathway complement components were used in the TP assays. In these assays, in a final volume of 300 uL GVB, lysis was achieved by the sequential addition of the following components: cRBC (3.3×10^8 cells/mL), C5b,6 (20 μM), C7 (15 nM), C8 (10 nM), and C9 (25 nM). The unlysed cell pellet was removed by centrifugation and lysis was measured immediately after the 30-minute reaction. […]\nA standard curve for the terminal pathway assay using purified complement components (FIG. 3) was generated using C7 (15 nM), C8 (10 nM), and C9 (25 nM) in excess, and hemolysis of chicken erythrocytes after 30 min at 37° C. was determined as dependent on the concentration of purified C5b,6. […]"}, "[2]": {"biological_target": "T1, C1-esterase inhibitor (C1-inh) (Homo sapiens, UniProt P05155)", "T1 sequence (P05155 23-500)": "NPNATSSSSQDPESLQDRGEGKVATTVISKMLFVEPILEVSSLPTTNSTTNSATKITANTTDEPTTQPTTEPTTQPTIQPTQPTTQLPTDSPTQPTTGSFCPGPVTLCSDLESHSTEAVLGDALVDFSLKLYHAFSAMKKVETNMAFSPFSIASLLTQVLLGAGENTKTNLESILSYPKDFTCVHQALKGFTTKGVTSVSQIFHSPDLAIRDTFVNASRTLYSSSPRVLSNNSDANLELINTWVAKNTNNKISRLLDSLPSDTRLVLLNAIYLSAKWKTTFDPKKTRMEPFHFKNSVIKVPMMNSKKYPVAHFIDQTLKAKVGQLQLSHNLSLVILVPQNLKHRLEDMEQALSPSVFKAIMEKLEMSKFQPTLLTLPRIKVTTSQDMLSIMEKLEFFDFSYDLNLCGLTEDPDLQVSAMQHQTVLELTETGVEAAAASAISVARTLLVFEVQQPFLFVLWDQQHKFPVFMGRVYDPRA", "experiment": "C1s-mediated cleavage of C2 in the presence of C1-inh (SDS-PAGE)", "assay_type": "biochemical", "settings": "10-500 μM, 6 nM C1s, 5 nM C1-inh", "method": "We tested whether polyP affects the inhibitory properties of C1-inh on C1s-mediated cleavage and activation of complement factor C4 and C2. SDS-PAGE followed by coomassie staining of gels was used to monitor cleavage of C4 by C1s in the presence/absence of C1-inh and/or polyP in a purified system.\nBriefly, 6 nM C1s with 10-500 μM of polyP1000 were incubated in 20 mM Hepes, 0.15 M NaCl, pH 7.5, 0.01% Tween buffer for 90 minutes at 37° C. 5 nM C1-inh was added and incubated for 30 minutes. C2 was added and incubated for 5 minutes at 37° C. The reactions were quenched with 5× loading buffer and β-ME."}, "[3]": {"system": "choroidal endothelial cells (CEC; RF/6A)", "experiment": "protection against H2O2 oxidative stress, microscopy", "assay_type": "cell-based", "settings": "100 μM to 1000 μM, H2O2 24 hours", "method": "Using cultured cell lines as models of choroidal endothelial cells (CEC; RF/6A)^73 and retinal pigmented epithelial cells (ARPE-19)^74, we tested whether polyphosphate (polyP) could protect against stress-induced alterations in cell survival and deposition of terminal complement activation products (C5b-9).\nCEC (FIG. 21) or ARPE-19 (FIG. 22) cells were grown to ˜80% confluence in DMEM+10% serum, and then incubated with varying concentration of hydrogen peroxide (H2O2) for 24 hours in the presence of varying concentrations of polyP1000."}}}
{"smiles": "O=P(O)(O)O", "note": "[P1, Orthophosphate]", "values": [{"measurement": "effect on erythrocyte lysis, purified TP components", "setting": "[1]", "result": "had no effect"}, {"measurement": "effect on activity of C1-inh in interfering with C1s-mediated cleavage of C2", "setting": "[2]", "result": "had no effect"}, {"measurement": "protective effect against H2O2 oxidative stress, CEC", "setting": "[3]", "result": "No effect was observed"}]}
